pIC50: −log10 of the molar value. ≈ marks a conversion by molar mass, not a printed value.
What was measured:
P. aeruginosa (PA) = experiment: MIC by microdilution, 36 clinical and laboratory strains with known efflux phenotype; assay type: cell-based
Description: (§1) MICs of 36 clinical and laboratory strains of PA with known efflux phenotype are measured by microdilution in cation-adjusted Muller-Hinton broth (CA-MHB) or in RPMI medium (commonly used in eukaryotic cell culture). Phe-Arg-β-naphthylamide (PaβN, 50 mg/L) and EGTA 5 mM are used to inhibit efflux pumps and alter OM integrity, respectively. P. aeruginosa strain ATCC PAO1 is used as reference. PA12 is a clinical strain overexpressing the 4 main efflux systems (MexAB, MexCD, MexEF, MexXY), PA403 is a laboratory strain deleted in the genes coding for the 4 efflux systems. A series of reference strains or of clinical isolates for which the expression of genes coding for efflux pumps is known is also used for MICs determinations. MICs are measured by microdilution in MH broth or in RPMI medium (used for eukaryotic cells culture) supplemented with 10% of fetal calf serum, or in MH broth supplemented by increasing amounts of serum. EGTA (5 mM) was used as a chelating agent (disrupting outer membrane integrity) and PaβN (50 mg/L) as an unspecific efflux inhibitor.

P. aeruginosa PA12 = experiment: MIC by microdilution with PaβN or EGTA, clinical isolate overexpressing efflux pumps; assay type: cell-based; conditions: Pseudomonas aeruginosa
Description: as §1

[1] = system: MRSA strains from CF patients; experiment: Microdilution MICs against 40 MRSA strains from CF patients; assay type: cell-based, S. aureus; conditions: Staphylococcus aureus, 40 MRSA strains from CF patients
Description: Two strains each of mucoid P. aeruginosa (both pyocyanin positive) and […] MRSA (only one strain with gold colonies) isolated from patients at a CF clinic were tested. Additionally, 2 B. cepacia strains were acquired, from Hershey Medical Center. All strains were identified by standard methods. Only one strain per patient was tested. MLVA was done on all strains to examine clonality, and confirmed that examination is not taking place on only one or a few clones. Strains will be stored in skim milk at −70° C. until use.
Original MICs of each strain to CEM-101 and other comparators were tested by CLSI microdilution methodology. Trays were obtained from Trek, Inc., Cleveland, Ohio. Time-kill macrobroth MIC dilution by CLSI was performed for all synergy testing.

IL-8 (CXCL8) release = experiment: LPS-induced IL-8 (CXCL8) release in PMA-differentiated U937 cells (ELISA); assay type: cell-based, human
Description: Effects of macrolides on lipopolysaccharide (LPS)-induced CXCL8 release in PMA-differentiated U937 cells. […] LPS-induced CXCL8 release was evaluated by ELISA. Values represent means of three experiments±SEM. ^##p<0.01 (vs. non-treatment control), *p<0.05, **p<0.01 (vs. treatment with LPS only).
The human monocytic cell line U937 was obtained from the American Type Culture Collection (ATCC, Rockville, Md.). PBMCs from COPD patients were obtained from Brompton hospital and separated by AccuSPIN (Sigma-Aldrich). Cells were cultured in complete growth medium (RPMI 1640) (Sigma-Aldrich) supplemented with 10% fetal bovine serum (FBS) and 1% L-glutamine at 37° C. in a humidified atmosphere with 5% CO2. U937 cells were differentiated into adherent macrophage-like morphology by exposure to PMA (50 ng/mL) for 48 hrs in complete growth medium. Cell viability was assessed microscopically by trypan blue staining. Cell toxicity was determined by MTT assay as needed. This study was approved by the ethics committee of the Royal Brompton Hospitals, and all subjects gave written informed consent.
TNFα and IL-8 concentrations in the supernatant of cell cultures were determined by sandwich ELISA according to the manufacturer's instructions (R&D Systems Europe, Abingdon, UK).
The results were expressed as the mean±SEM. Comparisons of data in two groups were performed using the Student's t test or the Wilcoxon signed rank test. Multiple comparisons were made by one-way ANOVA with post hoc test (Dunnett's) as appropriate. The difference was considered significant at p<0.05. IC50 values (50% inhibitory concentration) for macrolides for production of cytokines or MMP9 were calculated using Prism 4.0 (GraphPad Software Inc., San Diego, Calif.).

## CC[C@H]1OC(=O)[C@H](C)[C@@H](O[C@H]2C[C@@](C)(OC)[C@@H](O)[C@H](C)O2)[C@H](C)[C@@H](O[C@@H]2O[C@H](C)C[C@H](N(C)C)[C@H]2O)[C@](C)(O)C[C@@H](C)CN(C)[C@H](C)[C@@H](O)[C@]1(C)O [AZM, azithromycin]
P. aeruginosa (PA); strain 1, efflux AB+, MHB
  MIC: 128 µg/mL (≈ 171 µM)
P. aeruginosa (PA); strain 1, efflux AB+, RPMI
  MIC: 4 µg/mL (≈ 5.34 µM)
P. aeruginosa (PA); strain 2, efflux CD+, MHB
  MIC: 512 µg/mL (≈ 684 µM)
P. aeruginosa (PA); strain 2, efflux CD+, RPMI
  MIC: 4 µg/mL (≈ 5.34 µM)
P. aeruginosa (PA); strain 3, efflux EF+, MHB
  MIC: 64 µg/mL (≈ 85.4 µM)
P. aeruginosa (PA); strain 3, efflux EF+, RPMI
  MIC: 2 µg/mL (≈ 2.67 µM)
P. aeruginosa (PA); strain 4, efflux XY+, MHB
  MIC: 256 µg/mL (≈ 342 µM)
P. aeruginosa (PA); strain 4, efflux XY+, RPMI
  MIC: 2 µg/mL (≈ 2.67 µM)
P. aeruginosa (PA); strain 11, efflux AB + CD+, MHB
  MIC: 128 µg/mL
P. aeruginosa (PA); strain 11, efflux AB + CD+, RPMI
  MIC: 2 µg/mL
P. aeruginosa (PA); strain 12, efflux AB + CD + EF + XY+, MHB
  MIC: 256 µg/mL
P. aeruginosa (PA); strain 12, efflux AB + CD + EF + XY+, RPMI
  MIC: 2 µg/mL
P. aeruginosa (PA); strain 16, efflux AB + XY+, MHB
  MIC: 256 µg/mL
P. aeruginosa (PA); strain 16, efflux AB + XY+, RPMI
  MIC: 4 µg/mL
P. aeruginosa (PA); strain 21, efflux AB+, MHB
  MIC: 256 µg/mL (≈ 342 µM)
P. aeruginosa (PA); strain 21, efflux AB+, RPMI
  MIC: 2 µg/mL (≈ 2.67 µM)
P. aeruginosa (PA); strain 22, efflux XY+, MHB
  MIC: 256 µg/mL (≈ 342 µM)
P. aeruginosa (PA); strain 22, efflux XY+, RPMI
  MIC: 2 µg/mL (≈ 2.67 µM)
P. aeruginosa (PA); strain 40, efflux EF+, MHB
  MIC: 256 µg/mL (≈ 342 µM)
P. aeruginosa (PA); strain 40, efflux EF+, RPMI
  MIC: 2 µg/mL (≈ 2.67 µM)
P. aeruginosa (PA); strain 41, efflux CD+, MHB
  MIC: 256 µg/mL (≈ 342 µM)
P. aeruginosa (PA); strain 41, efflux CD+, RPMI
  MIC: 2 µg/mL (≈ 2.67 µM)
P. aeruginosa (PA); strain 48, efflux CD + EF + XY+, MHB
  MIC: 256 µg/mL
P. aeruginosa (PA); strain 48, efflux CD + EF + XY+, RPMI
  MIC: 2 µg/mL
P. aeruginosa (PA); strain 49, efflux CD + EF + XY+, MHB
  MIC: 256 µg/mL
P. aeruginosa (PA); strain 49, efflux CD + EF + XY+, RPMI
  MIC: 2 µg/mL
P. aeruginosa (PA); strain 63, efflux AB + EF + XY+, MHB
  MIC: 256 µg/mL
P. aeruginosa (PA); strain 63, efflux AB + EF + XY+, RPMI
  MIC: 2 µg/mL
P. aeruginosa (PA); strain 68, efflux AB + XY+, MHB
  MIC: 256 µg/mL
P. aeruginosa (PA); strain 68, efflux AB + XY+, RPMI
  MIC: 2 µg/mL
P. aeruginosa (PA); strain 133, efflux EF + XY+, MHB
  MIC: 256 µg/mL
P. aeruginosa (PA); strain 133, efflux EF + XY+, RPMI
  MIC: 4 µg/mL
P. aeruginosa (PA); strain 156, efflux EF + XY+, MHB
  MIC: 512 µg/mL
P. aeruginosa (PA); strain 156, efflux EF + XY+, RPMI
  MIC: 4 µg/mL
P. aeruginosa (PA); strain 168B, efflux CD + XY+, MHB
  MIC: 512 µg/mL
P. aeruginosa (PA); strain 168B, efflux CD + XY+, RPMI
  MIC: 4 µg/mL
P. aeruginosa (PA); strain 207, efflux AB + EF + XY+, MHB
  MIC: 512 µg/mL
P. aeruginosa (PA); strain 207, efflux AB + EF + XY+, RPMI
  MIC: 4 µg/mL
P. aeruginosa (PA); strain 266B, efflux AB + CD+, MHB
  MIC: 256 µg/mL
P. aeruginosa (PA); strain 266B, efflux AB + CD+, RPMI
  MIC: 2 µg/mL
P. aeruginosa (PA); strain 333A, efflux AB + EF+, MHB
  MIC: 256 µg/mL
P. aeruginosa (PA); strain 333A, efflux AB + EF+, RPMI
  MIC: 2 µg/mL
P. aeruginosa (PA); strain 335, efflux AB + EF+, MHB
  MIC: 512 µg/mL
P. aeruginosa (PA); strain 335, efflux AB + EF+, RPMI
  MIC: 4 µg/mL
P. aeruginosa (PA); strain 391, efflux EF−, MHB
  MIC: 128 µg/mL (≈ 171 µM)
P. aeruginosa (PA); strain 391, efflux EF−, RPMI
  MIC: 2 µg/mL (≈ 2.67 µM)
P. aeruginosa (PA); strain 392, efflux CD−, MHB
  MIC: 128 µg/mL (≈ 171 µM)
P. aeruginosa (PA); strain 392, efflux CD−, RPMI
  MIC: 2 µg/mL (≈ 2.67 µM)
P. aeruginosa (PA); strain 394, efflux XY−, MHB
  MIC: 256 µg/mL (≈ 342 µM)
P. aeruginosa (PA); strain 394, efflux XY−, RPMI
  MIC: 4 µg/mL (≈ 5.34 µM)
P. aeruginosa (PA); strain 395, efflux HI−, MHB
  MIC: 128 µg/mL (≈ 171 µM)
P. aeruginosa (PA); strain 395, efflux HI−, RPMI
  MIC: 2 µg/mL (≈ 2.67 µM)
P. aeruginosa (PA); strain 396, ompH−, MHB
  MIC: 64 µg/mL (≈ 85.4 µM)
P. aeruginosa (PA); strain 396, ompH−, RPMI
  MIC: 2 µg/mL (≈ 2.67 µM)
P. aeruginosa (PA); strain 397, efflux AB−, MHB
  MIC: 8 µg/mL (≈ 10.7 µM)
P. aeruginosa (PA); strain 397, efflux AB−, RPMI
  MIC: 1 µg/mL (≈ 1.34 µM)
P. aeruginosa (PA); strain 398, efflux CD−, MHB
  MIC: 16 µg/mL (≈ 21.4 µM)
P. aeruginosa (PA); strain 398, efflux CD−, RPMI
  MIC: 1 µg/mL (≈ 1.34 µM)
P. aeruginosa (PA); strain 399, efflux AB − EF−, MHB
  MIC: 16 µg/mL (≈ 21.4 µM)
P. aeruginosa (PA); strain 399, efflux AB − EF−, RPMI
  MIC: 2 µg/mL (≈ 2.67 µM)
P. aeruginosa (PA); strain 400, efflux XY−, MHB
  MIC: 8 µg/mL (≈ 10.7 µM)
P. aeruginosa (PA); strain 400, efflux XY−, RPMI
  MIC: 2 µg/mL (≈ 2.67 µM)
P. aeruginosa (PA); strain 401, ompH−, MHB
  MIC: 8 µg/mL (≈ 10.7 µM)
P. aeruginosa (PA); strain 401, ompH−, RPMI
  MIC: 2 µg/mL (≈ 2.67 µM)
P. aeruginosa (PA); strain 403, efflux AB − CD − EF − XY−, MHB
  MIC: 8 µg/mL (≈ 10.7 µM)
P. aeruginosa (PA); strain 403, efflux AB − CD − EF − XY−, RPMI
  MIC: 2 µg/mL (≈ 2.67 µM)
P. aeruginosa (PA); strain 405, efflux AB − CD − EF − XY−, MHB
  MIC: 8 µg/mL (≈ 10.7 µM)
P. aeruginosa (PA); strain 405, efflux AB − CD − EF − XY−, RPMI
  MIC: 2 µg/mL (≈ 2.67 µM)
P. aeruginosa (PA); strain 434, efflux AB + CD + XY+, MHB
  MIC: 512 µg/mL
P. aeruginosa (PA); strain 434, efflux AB + CD + XY+, RPMI
  MIC: 4 µg/mL
P. aeruginosa (PA); strain PAO1, REFERENCE, MHB
  MIC: 256 µg/mL (≈ 342 µM)
P. aeruginosa (PA); strain PAO1, REFERENCE, RPMI
  MIC: 4 µg/mL (≈ 5.34 µM)
P. aeruginosa PA12; PA12, PA12, CA-MHB, EGTA 5 mM
  MIC: 256 µg/mL (≈ 342 µM)
P. aeruginosa PA12; PA12, PA12, CA-MHB, PaβN 50 mg/L
  MIC: 2 µg/mL (≈ 2.67 µM)
P. aeruginosa PA12; PA12, PA12, CA-MHB, control conditions (CT)
  MIC: 256 µg/mL (≈ 342 µM)
P. aeruginosa PA12; PA12, PA12, RPMI, EGTA 5 mM
  MIC: 0.5 µg/mL (≈ 0.668 µM)
P. aeruginosa PA12; PA12, PA12, RPMI, PaβN 50 mg/L
  MIC: 2 µg/mL (≈ 2.67 µM)
P. aeruginosa PA12; PA12, PA12, RPMI, control conditions (CT)
  MIC: 2 µg/mL (≈ 2.67 µM)
[1]; read-out: MIC50
  MIC50: ≥ 32 µg/mL
[1]; read-out: MIC90
  MIC90: ≥ 32 µg/mL
IL-8 (CXCL8) release; 33 to 333 μM (FIG. 4)
  effect on IL-8 production: did not inhibit
IL-8 (CXCL8) release; Homo sapiens, U-937, U937 cells, at 333 μM, read-out: IC50, LPS-induced IL-8 release: NE at 333 μM
  pIC50: < 3.48

Source: patent US9861616B2, “Methods for treating respiratory diseases and formulations therefor” (priority 2013, dated 2018)
